Data set [1] is classed as in vitro ADME. The conditions noted are these: 0 min, pH 7.4. On the procedure:
The liver is the main organ of drug metabolism in the body. Subcellular fractions such as liver microsomes are useful in vitro models of hepatic clearance as they contain many of the drug metabolising enzymes found in the liver. Liver microsomes are subcellular fractions which contain membrane bound drug metabolising enzymes. The microsomes are incubated with the test compound at 37° C. in the presence of the co-factors, which initiates the reaction. The reaction is terminated by the addition of organic solvents containing internal standard. Following centrifugation, the supernatant is analysed on the LC-MS/MS. The disappearance of test compound is monitored over certain time period. Here, a microsome stability assay was used to investigate the metabolism of the compounds; using this assay it is possible to measure in vitro the intrinsic clearance or to identify metabolites formed. For a standard assay the following solutions were used: 360 μL Microsomal solution (1.1 mg/mL in phosphate buffer), 360 μL NADP-regeneration mix (containing NADP (10 mM), MgCl2 (50 mM), glucose-6-phosphate (50 mM), glucose-6-phosphate dehydrogenase (50 U/ml)) and 40 μL phosphate buffer (100 mM, pH 7.4). […] 5 uL of each sample was injected to a UPLC/HRMS system and the peak areas of the extracted ion chromatograms were determined

The next data set relates to Trypsin. The conditions noted are these: reported in literature; cited from earlier work.
In another data set the target is Cathepsin B (Homo sapiens, UniProt P07858). The note with it: reported in literature; cells printed in μM; read-out: Cathepsin B, reported inhibitory activity as IC50 value; cited from earlier work.

We go through two compounds from patent US20230202973A1, “BARNESIN A, DERIVATIVES AND USES THEREOF” (Leibniz-Institut Für Naturstoff-Forschung Und …, priority 2018, published 2023).

As to `O=C(O)Cc1ccccc1Nc1c(Cl)cccc1Cl` [Diclo, Diclofenac], the “Area rel. [%], PC” value in data set [1] worked out at 100.0%. Regarding `CC[C@H](NC(=O)C[C@H](O)[C@H](CC(C)C)NC(=O)[C@H](CC(C)C)NC(=O)[C@@H]1N[C@H]1C(=O)O)C(=O)N[C@H](/C=C/C(=O)O)CCCNC(=N)N` [Miraziridine A], the IC50 with Trypsin was 60 µM; at Cathepsin B, 2.05 µM.

By IC50 is commonly meant the concentration that gives 50% inhibition.
